Results on 23 compounds are retold here after BindingDB's records for doi:10.1016/j.ejmech.2017.01.044 (Universidade De Lisboa, 2017).

Each structure is given as a SMILES string.

This data set in a line: Inhibition of human ABCB1 expressed in mouse L5178Y cells assessed as reduction in cell growth after 24 hrs by MTT assay. In general terms: Formazan colour is commonly taken as a measure of viable cells.

Take `CC[C@@H]1CN(C)[C@H]2Cc3c([nH]c4ccccc34)/C(=N/Nc3ccccc3)C[C@H]1[C@@H]2C(=O)OC`: the IC50 (as a rule, the concentration that inhibits the measured activity by half) is 17 µM.

`CC[C@H]1CN(C)[C@H]2Cc3c([nH]c4ccccc34)/C(=N/Nc3cnccn3)C[C@H]1[C@@H]2C(=O)OC`: the IC50 is 84.8 µM.

For `CC[C@H]1CN(C)[C@H]2Cc3c([nH]c4ccccc34)C(=O)C[C@H]1[C@@H]2C(=O)OC`, the IC50 was over 100 µM.

As to `CC[C@@H]1CN(C)[C@H]2Cc3c([nH]c4ccccc34)C(=O)C[C@H]1[C@@H]2C(=O)OC`, the IC50 was over 100 µM.

For `CC[C@@H]1CN(C)[C@H]2Cc3c([nH]c4ccccc34)/C(=N/Nc3cnccn3)C[C@H]1[C@@H]2C(=O)OC`, the IC50 is over 100 µM.

Take `CC[C@@H]1CN(C)[C@H]2Cc3c([nH]c4ccccc34)/C(=N/NC(N)=O)C[C@H]1[C@@H]2C(=O)OC`: the IC50 was over 100 µM.

As to `CC[C@H]1CN(C)[C@H]2Cc3c([nH]c4ccccc34)/C(=N/NC(=O)OCc3ccc(OC)cc3)C[C@H]1[C@@H]2C(=O)OC`, the IC50 turned out to be 52.3 µM.

As for `CC[C@H]1CN(C)[C@H]2Cc3c([nH]c4ccccc34)/C(=N/NC(=S)NCc3cccnc3)C[C@H]1[C@@H]2C(=O)OC`, the half-maximal inhibitory concentration (IC50) stood at 45.2 µM.

With `CC[C@H]1CN(C)[C@H]2Cc3c([nH]c4ccccc34)C(=S)C[C@H]1[C@@H]2C(=O)OC`, the half-maximal inhibitory concentration (IC50) amounted to 77.9 µM.

As for `CC[C@H]1CN(C)[C@H]2Cc3c([nH]c4ccccc34)[C@@H](O)C[C@H]1[C@@H]2C(=O)OC`, the IC50 is over 100 µM.

For the compound `CC[C@@H]1CN(C)[C@H]2Cc3c([nH]c4ccccc34)[C@@H](O)C[C@H]1[C@@H]2C(=O)OC`, the IC50 amounted to 83.9 µM.

Turning to `C/C=C/C(=O)O[C@H]1C[C@@H]2[C@@H](CC)CN(C)[C@@H](Cc3c1[nH]c1ccccc31)[C@H]2C(=O)OC`, the IC50 is over 100 µM.

As to `CC[C@@H]1CN(C)[C@H]2Cc3c([nH]c4ccccc34)[C@@H](OC(=O)C34CC5CC(CC(C5)C3)C4)C[C@H]1[C@@H]2C(=O)OC`, the half-maximal inhibitory concentration (IC50) was over 100 µM.

For `CC[C@H]1CN(C)[C@H]2Cc3c(n(C)c4ccccc34)C(=O)C[C@H]1[C@@H]2C(=O)OC`, the IC50 is 89.2 µM.

Take `CC[C@H]1CN(C)[C@H]2Cc3c(n(Cc4ccccc4)c4ccccc34)C(=O)C[C@H]1[C@@H]2C(=O)OC`: the IC50 was found to be 38.1 µM.

For the compound `CC[C@H]1CN(C)[C@H]2Cc3c(n(CCN(CC)CC)c4ccccc34)C(=O)C[C@H]1[C@@H]2C(=O)OC`, the IC50 was over 100 µM.

As for `CC[C@H]1CN(C)[C@H]2Cc3c(n(C(=O)c4cccc(C)c4)c4ccccc34)C(=O)C[C@H]1[C@@H]2C(=O)OC`, the IC50 is over 100 µM.

Take `CC[C@H]1CN(C)[C@H]2Cc3c([nH]c4ccccc34)/C(=N/Nc3ccc(Br)cn3)C[C@H]1[C@@H]2C(=O)OC`: the concentration for half-maximal inhibition (IC50) was found to be 39.9 µM.

As to `CC[C@@H]1CN(C)[C@H]2Cc3c([nH]c4ccccc34)/C(=N/Nc3ccc(Br)cn3)C[C@H]1[C@@H]2C(=O)OC`, the IC50 turned out to be 37.6 µM.

As for `CC[C@H]1CN(C)[C@H]2Cc3c([nH]c4ccccc34)/C(=N/O)C[C@H]1[C@@H]2C(=O)OC`, the IC50 was 16.7 µM.

As to `CC[C@@H]1CN(C)[C@H]2Cc3c([nH]c4ccccc34)/C(=N/O)C[C@H]1[C@@H]2C(=O)OC`, the IC50 is 85.4 µM.

In the case of `CC[C@H]1CN(C)[C@H]2Cc3c([nH]c4ccccc34)/C(=N/NC(N)=O)C[C@H]1[C@@H]2C(=O)OC`, the IC50 is over 100 µM.

Take `CC[C@H]1CN(C)[C@H]2Cc3c([nH]c4ccccc34)/C(=N/Nc3ccccc3)C[C@H]1[C@@H]2C(=O)OC`: the IC50 is 52.7 µM.
